According to the CheMixHub drug solubility set:

Experiment: xn = mol fraction of the nth substance listed, in the solute-free solvent

CCCCN1CCCCC1C(=O)Nc1c(C)cccc1C.Cl.O (stereo not given) + CCO + O
solubility (g/100 g solution)
Conditions	293.15 K	298.15 K	303.15 K	308.15 K	313.15 K	318.15 K	323.15 K	328.15 K	333.15 K
x2 = 0.1	3.04	3.34	4.11	4.86	5.9	7.35	9.3	11.2	12.9
x2 = 0.2	3.1	3.37	4.04	4.84	6.41	7.92	10.1	12.9	15.1
x2 = 0.3	2.9	3.27	3.99	5.42	7.36	9.56	12.4	15.8	19
x2 = 0.4	2.85	3.29	4.28	5.77	7.83	10.9	14.2	18.3	22.9
x2 = 0.5	2.81	3.22	4.31	5.96	8.48	11.3	14.9	19.4	23.9
x2 = 0.6	3.15	3.43	4.62	6.22	8.61	11.5	15.1	19.4	23.7
x2 = 0.7	3.44	3.95	5.29	7.07	9.34	12.3	16.1	20.6	25
x2 = 0.8	3.84	4.16	5.55	7.29	9.54	12.4	15.9	20.2	24.7
x2 = 0.9	3.83	4.34	5.57	7.26	9.51	12.2	15.5	19.6	24

CCOC(=O)C1=CC2(CC)CCCN3CCc4c(n1c1ccccc41)C32 (stereo not given) + CCO + O
solubility (g/100 g solution)
Conditions	283.15 K	288.15 K	293.15 K	298.15 K	303.15 K	308.15 K	313.15 K	318.15 K	323.15 K
x2 = 0.2	0.00578	0.00816	0.0113	0.0153	0.0208	0.028	0.0375	0.0513	0.0683
x2 = 0.3	0.0454	0.0591	0.0768	0.0954	0.12	0.153	0.185	0.238	0.304
x2 = 0.4	0.106	0.138	0.178	0.211	0.277	0.346	0.421	0.524	0.668
x2 = 0.5	0.184	0.235	0.301	0.37	0.468	0.586	0.726	0.921	1.12
x2 = 0.6	0.257	0.331	0.43	0.52	0.639	0.824	0.996	1.25	1.54
x2 = 0.7	0.335	0.418	0.546	0.661	0.831	1.04	1.3	1.61	1.97
x2 = 0.8	0.372	0.479	0.612	0.757	0.941	1.21	1.47	1.87	2.26
x2 = 0.9	0.363	0.466	0.609	0.766	0.951	1.23	1.5	1.94	2.39

CN1CCN(C(=O)OC2c3nccnc3C(=O)N2c2ccc(Cl)cn2)CC1 (stereo not given) + CCO + O
solubility (g/100 g solution)
Conditions	x2 = 0.3	x2 = 0.4	x2 = 0.5	x2 = 0.6	x2 = 0.7	x2 = 0.8	x2 = 0.9
288.15 K	0.129	0.242	0.377	0.527	0.59	0.511	0.375
298.15 K	0.208	0.397	0.63	0.85	0.998	0.9	0.647
308.15 K	0.296	0.666	1.02	1.32	1.43	1.3	0.911
318.15 K	0.474	0.988	1.51	2.03	2.31	2.12	1.53
328.15 K	0.818	1.65	2.51	3.27	3.65	3.31	2.53

COC(=O)C1=C(C)NC(C)=C(C(=O)OCC(C)C)C1c1ccccc1[N+](=O)[O-] (stereo not given) + CCO + O
solubility (g/100 g solution)
Conditions	278.15 K	283.15 K	288.15 K	293.15 K	298.15 K	303.15 K	308.15 K	313.15 K	318.15 K
x2 = 0.08908	0.379	0.503	0.648	0.817	0.987	1.2	1.42	1.68	1.99
x2 = 0.2068	1.23	1.53	1.87	2.25	2.73	3.28	3.94	4.74	5.64
x2 = 0.3698	1.72	2.14	2.63	3.16	3.79	4.51	5.31	6.22	7.38
x2 = 0.6101	2.18	2.75	3.38	4.12	5	6	7.01	8.24	9.61

CS(=O)(=O)c1ccc(C(O)C(CF)NC(=O)C(Cl)Cl)cc1 (stereo not given) + CCO + O
solubility (g/100 g solution)
Conditions	278.15 K	283.15 K	288.15 K	293.15 K	298.15 K	303.15 K	308.15 K	313.15 K	318.15 K
x2 = 0.04165	0.113	0.15	0.202	0.267	0.34	0.453	0.569	0.728	0.926
x2 = 0.08908	0.225	0.295	0.39	0.507	0.655	0.841	1.06	1.33	1.64
x2 = 0.1436	0.376	0.498	0.639	0.817	1.03	1.29	1.6	1.99	2.41
x2 = 0.2068	0.536	0.699	0.887	1.13	1.42	1.76	2.15	2.65	3.18
x2 = 0.2812	0.663	0.857	1.08	1.38	1.72	2.13	2.59	3.18	3.85
x2 = 0.3698	0.77	0.998	1.27	1.6	2.01	2.48	3.02	3.69	4.43
x2 = 0.4772	0.869	1.11	1.43	1.79	2.22	2.75	3.35	4.05	4.88
x2 = 0.6101	0.959	1.22	1.55	1.94	2.42	2.98	3.59	4.37	5.21
x2 = 0.7788	1.01	1.3	1.62	2.05	2.53	3.08	3.75	4.55	5.42
